Experimental data from the NIST ThermoML archive (doi:10.1016/j.jct.2017.03.006).

Test: xn = mol fraction of the nth substance listed
Conditions: Liquid, x1 = 1; for mass density: Vibrating tube method; for viscosity: Concentric cylinders viscometry

CCC(C)O (stereo unspecified) [butan-2-ol] + Cc1ccc(C)c(C)c1
Conditions	mass density [kg/m3]	viscosity [mPa·s]
273.15 K, 100 kPa	822.3	–
273.15 K, 1000 kPa	822.7	–
273.15 K, 2000 kPa	823.4	–
273.15 K, 5000 kPa	825.4	–
273.15 K, 10000 kPa	828.7	–
273.15 K, 15000 kPa	831.8	–
273.15 K, 20000 kPa	834.7	–
273.15 K, 30000 kPa	840.4	–
273.15 K, 40000 kPa	845.7	–
273.15 K, 50000 kPa	850.7	–
273.15 K, 60000 kPa	855.4	–
273.15 K, 70000 kPa	859.9	–
273.15 K, 80000 kPa	864.3	–
273.15 K, 90000 kPa	868.4	–
273.15 K, 100000 kPa	872.4	–
273.15 K, 110000 kPa	876.3	–
273.15 K, 120000 kPa	879.9	–
273.15 K, 130000 kPa	883.5	–
273.15 K, 140000 kPa	887.2	–
293.15 K, 100 kPa	806.3	3.725
293.15 K, 1000 kPa	807	–
293.15 K, 2000 kPa	807.8	–
293.15 K, 5000 kPa	810	–
293.15 K, 10000 kPa	813.6	–
293.15 K, 15000 kPa	817	–
293.15 K, 20000 kPa	820.2	–
293.15 K, 30000 kPa	826.5	–
293.15 K, 40000 kPa	832.3	–
293.15 K, 50000 kPa	837.7	–
293.15 K, 60000 kPa	842.8	–
293.15 K, 70000 kPa	847.7	–
293.15 K, 80000 kPa	852.3	–
293.15 K, 90000 kPa	856.7	–
293.15 K, 100000 kPa	860.9	–
293.15 K, 110000 kPa	865	–
293.15 K, 120000 kPa	868.8	–
293.15 K, 130000 kPa	872.7	–
293.15 K, 140000 kPa	876.3	–
303.15 K, 100 kPa	–	2.555
313.15 K, 100 kPa	789.4	1.814
313.15 K, 1000 kPa	790.1	–
313.15 K, 2000 kPa	791	–
313.15 K, 5000 kPa	793.5	–
313.15 K, 10000 kPa	797.5	–
313.15 K, 15000 kPa	801.4	–
313.15 K, 20000 kPa	805.1	–
313.15 K, 30000 kPa	811.9	–
313.15 K, 40000 kPa	818.3	–
313.15 K, 50000 kPa	824.1	–
313.15 K, 60000 kPa	829.6	–
313.15 K, 70000 kPa	835	–
313.15 K, 80000 kPa	839.9	–
313.15 K, 90000 kPa	844.6	–
313.15 K, 100000 kPa	849	–
313.15 K, 110000 kPa	853.3	–
313.15 K, 120000 kPa	857.5	–
313.15 K, 130000 kPa	861.5	–
313.15 K, 140000 kPa	865.4	–
323.15 K, 100 kPa	–	1.331
333.15 K, 100 kPa	770.7	1.007
333.15 K, 1000 kPa	771.6	–
333.15 K, 2000 kPa	772.6	–
333.15 K, 5000 kPa	775.5	–
333.15 K, 10000 kPa	780.1	–
333.15 K, 15000 kPa	784.4	–
333.15 K, 20000 kPa	788.6	–
333.15 K, 30000 kPa	796.2	–
333.15 K, 40000 kPa	803.2	–
333.15 K, 50000 kPa	809.6	–
333.15 K, 60000 kPa	815.7	–
333.15 K, 70000 kPa	821.4	–
333.15 K, 80000 kPa	826.7	–
333.15 K, 90000 kPa	831.8	–
333.15 K, 100000 kPa	836.6	–
333.15 K, 110000 kPa	841.2	–
333.15 K, 120000 kPa	845.5	–
333.15 K, 130000 kPa	849.8	–
333.15 K, 140000 kPa	853.9	–
